The conditions of test [1]: as seen from the therapeutic index; cited from earlier work.
The test system of test [2] is human acute promyelocytic leukemia cells HL 60. Briefly: Differentiation of HL-60 cells: NBT reduction (counting formazan-containing cells), ED50. In kind it is cell-based. Conditions: for activity (in words): HL-60 differentiation, Table 1; for EC50: Homo sapiens, read-out: ED50 (effective dose which causes differentiation of 50% of the cultured cells). The protocol:
The test of the activities of the compounds of this invention has been conducted by measuring the concentration required for inducing the differentiation of human acute promyelocytic leukemia cells HL 60, according to the methods described in detail hereinafter.
(§1) The HL-60 cell are cultured in plastic flasks in RPMI 1640 medium supplemented with 5% heat inactivated fetal calf serum and antibiotics (penicillin G and streptomycin). The cells (3×10^4 /ml) are cultured with a compound of the present invention for 4 days. The cells are fixed and stained with Wright-Giemsa to examine the morphological changes of the nuclei.
The biochemical activity of cells treated with the compound is measured as follows:
The cells after 5 days incubation are centrifuged and diluted with RPMI 1640 medium, supplemented with 5% fetal calf serum to provide a definite number of the cells. To the diluted cell suspension are then added 200 ng/ml of 12-o-tetradodecanoylphorbol-13 -acetate (TPA) and the resulting culture medium is then incubated for 20 minutes at 37° C. in the presence of 0.1% of NBT. Thus, the mature differentiated cells containing blue-black formazan is counted by microscopy, so that the ratio of the cells having the ability to reduce NBT, to total cells, can be calculated.
(§2) The biological test was performed according to the method previously described, using the leukemia cells HL 60. The morphological changes were observed under a light microscope. Biochemical activity reducing nitro-blue tetrazolium is assayed by counting the number of cells which contain formazan. The specific activity, ED50 (the concentration which causes the differentiation of 50% of the total cells, represented by M), was calculated and shown in the Table. As a positive control for comparison, all trans retinoic acid was used.

Test [3] concerns chemically-induced papillomas of the skin of mice. As to conditions: minute quantities; cited from earlier work.
Test [4] relates to chemically-induced skin carcinomas in mice. Conditions: cited from earlier work.
Test [5] relates to human acute promyelocytic leukemia cells (HL-60). The experiment in a line: Differentiation of HL-60 cells: morphological changes of nuclei (Wright-Giemsa). As to conditions: HL-60, 4 days culture. It counts as cell-based. The protocol:
as §1, §2

Read-outs that look alike come from different tables or passages of the source.

For `CCOC(=O)c1ccc(/C=C(\C)c2ccc3c(c2)C(C)(C)CCC3(C)C)cc1` [Artinoid], the “activity relative to Retinoic acid” value in test [1] was “ten times as strong”.

As to `CC1(C)CCC(C)(C)c2cc3c(=O)cc(-c4ccc(C(=O)O)cc4)oc3cc21` [No. 5, 4-(6,7,8,9-tetrahydro-6,6,9,9,-tetramethyl-4H-4-oxo-naphtho[2,3-b]pyran-2-yl) benzoic acid], the “activity (in words)” value in test [2] is on record as “one of the strongest compounds”. In the case of `CC1(C)CCC(C)(C)c2cc(C(=O)C=C(O)c3ccc(C(=O)O)cc3)c(O)cc21` [No. 8, 4-[1-hydroxy-3-(3-hydroxy-5,6,7,8-tetrahydro-5,5,8,8-tetra-methyl-2-naphthalenyl)-3-oxo-1-propenyl] benzoic acid], in test [2], the “activity (in words)” value is listed as “most active compound”.

Regarding `CCOC(=O)c1ccc(/C=C(\C)c2ccc3c(c2)C(C)(C)CCC3(C)C)cc1` [Ro 13 6298], in test [3], the regression of papillomas entry is “regression”. The “therapeutic influence on skin carcinomas” value in test [4] was “therapeutic influence”.

Turning to `O=C(O)c1ccc(-c2cc(=O)c3ccccc3o2)cc1` [compound 1], in test [2] (HL-60 cells), the “ED50 (effective dose which causes differentiation of 50% of the cultured cells)” value is “inactive (10^-5)”. `CC(C)(C)c1ccc2c(=O)cc(-c3ccc(C(=O)O)cc3)oc2c1` [compound 2]: in test [2] (96 h, HL-60 cells), the EC50 stood at 210000 pM.

On to `COC(=O)c1ccc(-c2cc(=O)c3cc4c(cc3o2)C(C)(C)CCC4(C)C)cc1` [compound 4], for which, in test [2] (96 h, HL-60 cells), the EC50 was found to be 510 pM. Same read-out and setting: as for `CC1(C)CCC(C)(C)c2cc3c(=O)cc(-c4ccc(C(=O)O)cc4)oc3cc21` [compound 5], the figure is 63 pM. The same measure, in the same setting: the figure for `CC1(C)CCC(C)(C)c2cc3c(=O)c(O)c(-c4ccc(C(=O)O)cc4)oc3cc21` [compound 6] is 1200 pM; for `CC1(C)CCC(C)(C)c2cc(C(=O)C=Cc3ccc(C(=O)O)cc3)c(O)cc21` [compound 7] it is 100 pM; for `CC1(C)CCC(C)(C)c2cc(C(=O)C=C(O)c3ccc(C(=O)O)cc3)c(O)cc21` [compound 8] it is 91 pM. In the case of `CC(C)(C)c1ccc(C(=O)C=C(O)c2ccc(C(=O)O)cc2)c(O)c1` [compound 9], the EC50 in test [2] (96 h, HL-60 cells) was 930000 pM. For `CC1=C(/C=C/C(C)=C/C=C/C(C)=C/C(=O)O)C(C)(C)CCC1` [retinoic acid, all trans retinoic acid, reference compound], the EC50 in test [2] (HL-60, 96 h) stood at 4100 pM. Besides, in test [5], the “differentiation to mature granulocytes” value is “differentiated to mature granulocytes”.
